Measured values as given in patent US8367671B2, “Pyrazolo[3.4-B]pyrazine compounds as p38 modulators and methods of use as anti-inflamatory agents” (Amgen Inc., priority 2008, dated 2013).

Tests used:
[1] = system: TNF-α induced IL-8 in 50% human whole blood; test: Inhibition of TNF-α induced IL-8 in 50% human whole blood; assay type: cell-based; conditions: 50% human whole blood activated with 1 nM TNF-α, secreted IL-8, 16-18 hours; read-out: WB TNF/IL8 IC50
Procedure: Inhibition of TNF-α Induced IL-8 in 50% Human Whole Blood
Test compounds were evaluated in vitro for the ability to inhibit the production of secreted IL-8 by whole blood activated with TNF-α. Fresh human whole blood was obtained from healthy, non-medicated volunteers in sodium heparin tubes.
Compound Dilution—Assay Procedure
Test compounds are serially diluted 1:3 in DMSO and then diluted 1:250 into R10 (RPMI 1640, 10% human serum AB, 1× pen/strep/glutamine) to the 4× working concentration to be used in the assay. 100 ul heparinized whole blood is plated into wells of 96 well flat bottom plates. 50 ul of either 4× compound or DMSO control (Final DMSO concentration is 0.1%) are added to the appropriate wells. Plates are incubated for 1 hour at 37 degrees Celsius. 50 ul of 4× TNF-α (4 nM TNF-α, for a final concentration of 1 nM) or control (media alone) is added to the appropriate wells (Total volume=200 ul). Plates are incubated overnight (16-18 hours). 100 ul of supernatant is collected and stored in 96-well round bottom polypropylene plates at −80 degrees Celsius or assayed immediately for IL-8.
Cytokines are measured on antibody (Ab) sandwich ECL based 96-well detection plates. 20 ul of supernatant are added to plate and plate is sealed and shaken at RT for 1 hour. 130 ul of detection Ab cocktail is added and plates are sealed and shaken for 1 hour in the dark at RT. Plates are read on MSD Sector HTS instrument. Data are analyzed and IC50 values generated using Activity Base and Xl-fit programs.

human p38α = human p38α (Homo sapiens, UniProt Q16539); test: Purified and activated recombinant human p38α HTRF kinase assay; assay type: biochemical; conditions: 1 nM p38α, 50 μM ATP, 100 nM GST-ATF2-Avitag, 1 hour at RT; read-out: p38a IC50
Procedure: Purified and Activated Recombinant Human p38α Aassay
Kinase Reaction Buffer: Kinase reaction buffer for p38α HTRF assays consists of 50 mM Tris-pH 7.5, 5 mM MgCl2, 0.1 mg/mL BSA, 100 μM Na3VO4 and 0.5 mM DTT.
HTRF Detection Buffer: HTRF detection buffer contains 100 mM HEPES-pH 7.5, 100 mM NaCl, 0.1% BSA, 0.05% Tween-20, and 10 mM EDTA.
Serial Dilution of Compounds: Compounds were dissolved in 100% DMSO and serially diluted (3 fold, 10 point) in a polypropylene 96-well microtiter plate (drug plate). The final starting concentration of compounds in the p38a enzymatic assays was 1 μM. Columns 6 and 12 (HI controls and LO controls respectively) in the drug plate were reserved as controls and contained only DMSO. Kinase Reaction: The p38α kinase reactions were carried out in a polypropylene 96-well black round bottom assay plate in total volume of 30 μL kinase reaction buffer. Appropriate concentration of purified and activated enzyme (recombinant human) was mixed with indicated concentration of ATP and 100 nM GST-ATF2-Avitag, in the presence or absence (HI control) of Compound. See table below for actual concentrations. In the absence of substrate, the background was measured as LO control. The reaction was allowed to incubate for 1 hour at RT. Assay Reagent Concentrations: The final reagent concentrations were 1 nM p38α and 50 μM ATP. The Km for ATP of the enzyme was 103 μM, giving a ratio of ATP concentration to Km of 0.49. […] After 60 minutes incubation at room temperature, the assay plate was read in a Discovery Plate Reader. The wells were excited with coherent 320 nm light and the ratio of delayed ([…] post excitation) emissions at […] (native europium fluorescence) and 665 nm (europium fluorescence transferred to allophycocyanin—an index of substrate phosphorylation) was determined (Park et al, 1999). Data Analysis: The proportion of substrate phosphorylated in the kinase reaction in the presence of compound compared with that phosphorylated in the presence of DMSO vehicle alone (HI control) was calculated using the formula: % control (POC)=(compound−average LO)/(average HI−average LO)*100. Data (consisting of POC and inhibitor concentration in μM) was fitted to a 4-parameter equation (y=A+((B−A)/(1+((x/C)^D))), where A is the minimum y (POC) value, B is the maximum y (POC), C is the x (compound concentration) at the point of inflection and D is the slope factor, using a Levenburg-Marquardt non-linear regression algorithm.
The inhibition constant (Ki) of the inhibitor was estimated from the IC50 (compound concentration at the point of inflection C) using the Cheng-Prussof equation: Ki=IC50/(1+S/Km), where S is the ATP substrate concentration, and Km is the Michaelis constant for ATP as determined experimentally. All results were expressed as the mean±the standard error of the mean. Data acquisition and non-linear regression algorithms were performed using Activity Base v5.2 and XL-fit software v4.1 respectively. All data was archived using Activity Base v5.2 software.

Sequence of human p38α (Q16539 whole entry): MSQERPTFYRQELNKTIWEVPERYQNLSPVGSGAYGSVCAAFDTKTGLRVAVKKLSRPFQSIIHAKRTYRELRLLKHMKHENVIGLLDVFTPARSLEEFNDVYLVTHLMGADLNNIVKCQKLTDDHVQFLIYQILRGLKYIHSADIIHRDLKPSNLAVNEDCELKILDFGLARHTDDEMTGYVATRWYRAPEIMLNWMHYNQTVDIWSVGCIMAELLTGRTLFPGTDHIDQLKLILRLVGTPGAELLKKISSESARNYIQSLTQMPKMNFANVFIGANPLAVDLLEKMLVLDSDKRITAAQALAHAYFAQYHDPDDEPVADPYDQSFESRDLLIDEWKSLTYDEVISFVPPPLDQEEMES

SMILES	IC50 [1]	IC50 (human p38α)
Cc1c(F)cc(C(=O)NC2CC2)cc1-c1nc2cnn(-c3c(F)cccc3F)c2n(C)c1=O [Example 1, N-Cyclopropyl-3-(1-(2,6-difluorophenyl)-7-methyl-6-oxo-6,7-dihydro-1H-pyrazolo[4,3-b]pyrazin-5-yl)-5-fluoro-4-methylbenzamide]	10.7 nM	1.8 nM
CCn1c(=O)c(-c2cc(C(=O)Nc3ccon3)cc(F)c2C)nc2cnn(-c3ccc(F)cc3F)c21 [Example 2, 3-(1-(2,4-Difluorophenyl)-7-ethyl-6-oxo-6,7-dihydro-1H-pyrazolo[4,3-b]pyrazin-5-yl)-5-fluoro-N-(isoxazol-3-yl)-4-methylbenzamide]	6.1 nM	2.5 nM
Cc1ccc(C(=O)NC2CC2)cc1-c1nc2cnn(-c3c(F)cccc3F)c2n(C)c1=O [Example 3, N-cyclopropyl-3-(1-(2,6-difluorophenyl)-7-methyl-6-oxo-6,7-dihydro-1H-pyrazolo[3,4-b]pyrazin-5-yl)-4-methylbenzamide]	7.3 nM	3.3 nM
Cc1ccc(C(N)=O)cc1-c1nc2cnn(-c3c(F)cccc3F)c2n(C)c1=O [Example 4, 3-(1-(2,6-difluorophenyl)-7-methyl-6-oxo-6,7-dihydro-1H-pyrazolo[3,4-b]pyrazin-5-yl)-4-methylbenzamide]	41 nM	8.5 nM
CCn1c(=O)c(-c2cc(C(=O)NC3CC3)ccc2C)nc2cnn(-c3c(F)cccc3F)c21 [Example 5, N-cyclopropyl-3-(1-(2,6-difluorophenyl)-7-ethyl-6-oxo-6,7-dihydro-1H-pyrazolo[3,4-b]pyrazin-5-yl)-4-methylbenzamide]	5.8 nM	1.4 nM
Cc1c(F)cc(C(=O)Nc2ccon2)cc1-c1nc2cnn(-c3c(F)cccc3F)c2n(C)c1=O [Example 6, 3-(1-(2,6-difluorophenyl)-7-methyl-6-oxo-6,7-dihydro-1H-pyrazolo[3,4-b]pyrazin-5-yl)-5-fluoro-N-3-isoxazolyl-4-methylbenzamide]	3.2 nM	1.2 nM
Cc1c(F)cc(C(=O)NC2CC2)cc1-c1nc2cnn(-c3ccc(F)cc3F)c2n(C)c1=O [Example 7, N-cyclopropyl-3-(1-(2,4-difluorophenyl)-7-methyl-6-oxo-6,7-dihydro-1H-pyrazolo[3,4-b]pyrazin-5-yl)-5-fluoro-4-methylbenzamide]	25 nM	34 nM
Cc1c(F)cc(C(=O)Nc2ccon2)cc1-c1nc2cnn(-c3ccc(F)cc3F)c2n(C)c1=O [Example 8, 3-(1-(2,4-difluorophenyl)-7-methyl-6-oxo-6,7-dihydro-1H-pyrazolo[3,4-b]pyrazin-5-yl)-5-fluoro-N-3-isoxazolyl-4-methylbenzamide]	13 nM	4.6 nM
CCn1c(=O)c(-c2cc(C(=O)NC3CC3)cc(F)c2C)nc2cnn(-c3ccc(F)cc3F)c21 [Example 9, N-cyclopropyl-3-(1-(2,4-difluorophenyl)-7-ethyl-6-oxo-6,7-dihydro-1H-pyrazolo[3,4-b]pyrazin-5-yl)-5-fluoro-4-methylbenzamide]	8.4 nM	5 nM
Cc1ccc(C(=O)Nc2ccon2)cc1-c1nc2cnn(-c3c(F)cccc3F)c2n(C)c1=O [Example 10, 3-(1-(2,6-difluorophenyl)-7-methyl-6-oxo-6,7-dihydro-1H-pyrazolo[3,4-b]pyrazin-5-yl)-N-3-isoxazolyl-4-methylbenzamide]	3.7 nM	10 nM
CCn1c(=O)c(-c2cc(C(=O)NC3CC3)cc(F)c2C)nc2cnn(-c3c(F)cccc3F)c21 [Example 11, N-cyclopropyl-3-(1-(2,6-difluorophenyl)-7-ethyl-6-oxo-6,7-dihydro-1H-pyrazolo[3,4-b]pyrazin-5-yl)-5-fluoro-4-methylbenzamide]	3 nM	2.3 nM
CCn1c(=O)c(-c2cc(C(N)=O)cc(F)c2C)nc2cnn(-c3c(F)cccc3F)c21 [Example 12, 3-(1-(2,6-difluorophenyl)-7-ethyl-6-oxo-6,7-dihydro-1H-pyrazolo[3,4-b]pyrazin-5-yl)-5-fluoro-4-methylbenzamide]	23 nM	22 nM
CCn1c(=O)c(-c2cc(C(=O)Nc3ccon3)ccc2C)nc2cnn(-c3c(F)cccc3F)c21 [Example 13, 3-(1-(2,6-difluorophenyl)-7-ethyl-6-oxo-6,7-dihydro-1H-pyrazolo[3,4-b]pyrazin-5-yl)-N-3-isoxazolyl-4-methylbenzamide]	1.2 nM	0.7 nM
